Reference: patent publication US8883779B2, “Oxazine derivatives and a pharmaceutical composition for inhibiting BACE1 containing them” (Shinogi & Co., Ltd., priority 2011, dated 2014)
Blank lines part the entries; values can stand above or below the compound they belong to.

Columns and labels:
[1] = target: T1, CYP3A4 enzyme (enzyme expressed in Escherichia coli) (Homo sapiens, UniProt P08684); assay: CYP3A4 fluorescent MBI test; format: in vitro ADME; settings: 7-BFC substrate, pre-reaction time 0 or 30 minutes
T1 construct: host or cells: Escherichia coli
Protocol: The CYP3A4 fluorescent MBI test is a test of investigating enhancement of CYP3A4 inhibition of a compound by a metabolism reaction. 7-benzyloxytrifluoromethylcoumarin (7-BFC) is debenzylated by the CYP3A4 enzyme (enzyme expressed in Escherichia coli) and 7-hydroxytrifluoromethylcoumarin (7-HFC) is produced as a fluorescing metabolite. The test is performed using 7-HFC production reaction as an index.
The reaction conditions are as follows: substrate, 5.6 μmol/L 7-BFC; pre-reaction time, 0 or 30 minutes; substrate reaction time, 15 minutes; reaction temperature, 25° C. […]
An enzyme in a K-Pi buffer (pH 7.4) and a compound of the present invention solution as a pre-reaction solution were added to a 96-well plate at the composition of the pre-reaction. […] Fluorescent values of 7-HFC as a metabolite were measured in each index reaction plate with a fluorescent plate reader. […]
The sample adding DMSO to a reaction system instead of compound of the present invention solution was adopted as a control (100%) because DMSO is used as a solvent to dissolve a compound of the present invention. Remaining activity (%) was calculated at each concentration of the compound of the present invention added as the solution, and IC50 was calculated by reverse-presumption by a logistic model using a concentration and an inhibition rate. […]

[2] = target: T2, Recombinant human BACE1 (Homo sapiens, UniProt P56817); assay: Assay of BACE1 inhibiting activity; format: biochemical; settings: Recombinant human BACE1 7.4 nmol/L, substrate peptide 18 nmol/L, pH 5.0, 30° C., 3.5 hours; read-out: 50% inhibitory concentration against the enzymatic activity (IC50)
T2 construct: purchased R&D Systems
Protocol: 48.5 μL of substrate peptide solution (Biotin-XSEVNLDAEFRHDSGC-Eu: X=ε-amino-n-capronic acid, Eu=Europium cryptate) was added to each well of 96-hole half-area plate (a black plate: Costar), and after addition of 0.5 μl of the compound of the present invention (DMSO solution) and 1 μl of Recombinant human BACE1(R&D Systems), the reaction mixture was incubated at 30° C. for 3.5 hours. The substrate peptide was synthesized by reacting Cryptate TBPCOOH mono SMP (CIS bio international) with Biotin-XSEVNLDAEFRHDSGC (Peptide Institute, Inc.). The final concentrations of the substrate peptide and Recombinant human BACE1 were adjusted to 18 nmol/L and 7.4 nmol/L, respectively, and the reaction was performed in sodium acetate buffer (50 mmol/L sodium acetate, pH 5.0, 0.008% Triton X-100).
After the incubation for reaction, 50 μl of 8.0 μg/ml Streptavidin-XL665 (CIS bio international) dissolved in phosphate buffer (150 mmol/L K2 HPO4—KH2 PO4, pH 7.0, 0.008% Triton X-100, 0.8 mol/L KF) was added to each well and left stand at 30° C. for 45 minutes. After then, fluorescence intensity was measured (excitation wavelength: 320 nm, measuring wavelength: 620 nm and 665 nm) using Wallac 1420 multilabel counter (Perkin Elmer life sciences).

[3] = Metabolism stability test; format: in vitro ADME; settings: human liver microsomes 0.5 mg protein/mL, 1 mmol/L NADPH, 37° C., 30 minutes
Protocol: Using a commercially available pooled human liver microsomes, a compound of the present invention is reacted for a constant time, a remaining rate is calculated by comparing a reacted sample and an unreacted sample, thereby, a degree of metabolism in liver was assessed.
A reaction was performed (oxidative reaction) at 37° C. for 0 minute or 30 minutes in the presence of 1 mmol/L NADPH in 0.2 mL of a buffer (50 mmol/L Tris-HCl pH 7.4, 150 mmol/L potassium chloride, 10 mmol/L magnesium chloride) containing 0.5 mg protein/mL of human liver microsomes. After the reaction, 50 μL of the reaction solution was added to 100 μL of a methanol/acetonitrile=1/1 (v/v), mixed and centrifuged at 3000 rpm for 15 minutes. The compound of the present invention in the supernatant was quantified by LC/MS/MS, and a remaining amount of the compound of the present invention after the reaction was calculated, letting a compound amount at 0 minute reaction time to be 100%.

[4] = target: T3, CYP2C9 (Homo sapiens, UniProt P11712); assay: CYP inhibition test, tolbutamide methyl-hydroxylation; format: in vitro ADME; settings: pooled human liver microsomes, 100 μmol/L tolbutamide
T3 construct: The commercially available pooled human liver microsomes were used; from tissue; host or cells: pooled human liver microsomes
From the text: (§1) The test is to assess the inhibitory effect of a compound of the present invention towards typical substrate metabolism reactions on CYP enzymes in human liver microsomes. The commercially available pooled human liver microsomes were used.
(§2) The marker reactions on human main five CYP enzymes (CYP1A2, 2C9, 2C19, 2D6, and 3A4) were used as follows; 7-ethoxyresorufin O-deethylation (CYP1A2), tolbutamide methyl-hydroxylation (CYP2C9), mephenyloin 4′-hydroxylation (CYP2C19), dextromethorphan O-demethylation (CYP2D6), and terfenadine hydroxylation (CYP3A4 […]
(§3) Five kinds of substrates, human liver microsomes, or a compound of the present invention in 50 mmol/L Hepes buffer was added to a 96-well plate at the composition as described above as a reaction solution. […] After the centrifugation at 3000 rpm for 15 minutes, resorufin (CYP1A2 metabolite) in the supernatant was quantified by a fluorescent plate reader, and hydroxytolbutamide (CYP2C9 metabolite), 4′-hydroxymephenyloin (CYP2C19 metabolite), dextrorphan (CYP2D6 metabolite), and terfenadine alcohol metabolite (CYP3A4 metabolite) in the supernatant were quantified by LC/MS/MS. […]

[5] = target: T4, CYP2C19 (Homo sapiens, UniProt P33261); assay: CYP inhibition test, mephenyloin 4'-hydroxylation; format: in vitro ADME; settings: pooled human liver microsomes, 50 μmol/L S-mephenyloin
T4 construct: The commercially available pooled human liver microsomes were used; from tissue; host or cells: pooled human liver microsomes
From the text: as §1, §2, §3

[6] = target: T5, CYP3A4 (Homo sapiens, UniProt P08684); assay: CYP inhibition test, terfenadine hydroxylation; format: in vitro ADME; settings: pooled human liver microsomes, 1 μmol/L terfenadine
T5 construct: The commercially available pooled human liver microsomes were used; from tissue; host or cells: pooled human liver microsomes
From the text: as §1, §2, §3

[7] = target: T6, CYP2D6 (Homo sapiens, UniProt P10635); assay: CYP inhibition test, dextromethorphan O-demethylation; format: in vitro ADME; settings: pooled human liver microsomes, 5 μmol/L dextromethorphan
T6 construct: The commercially available pooled human liver microsomes were used; from tissue; host or cells: pooled human liver microsomes
From the text: as §1, §2, §3

[8] = target: T7, CYP1A2 (Homo sapiens, UniProt P05177); assay: CYP inhibition test, 7-ethoxyresorufin O-deethylation; format: in vitro ADME; settings: pooled human liver microsomes, 0.5 μmol/L ethoxyresorufin
T7 construct: The commercially available pooled human liver microsomes were used; from tissue; host or cells: pooled human liver microsomes
T7 sequence (P05177 1-516): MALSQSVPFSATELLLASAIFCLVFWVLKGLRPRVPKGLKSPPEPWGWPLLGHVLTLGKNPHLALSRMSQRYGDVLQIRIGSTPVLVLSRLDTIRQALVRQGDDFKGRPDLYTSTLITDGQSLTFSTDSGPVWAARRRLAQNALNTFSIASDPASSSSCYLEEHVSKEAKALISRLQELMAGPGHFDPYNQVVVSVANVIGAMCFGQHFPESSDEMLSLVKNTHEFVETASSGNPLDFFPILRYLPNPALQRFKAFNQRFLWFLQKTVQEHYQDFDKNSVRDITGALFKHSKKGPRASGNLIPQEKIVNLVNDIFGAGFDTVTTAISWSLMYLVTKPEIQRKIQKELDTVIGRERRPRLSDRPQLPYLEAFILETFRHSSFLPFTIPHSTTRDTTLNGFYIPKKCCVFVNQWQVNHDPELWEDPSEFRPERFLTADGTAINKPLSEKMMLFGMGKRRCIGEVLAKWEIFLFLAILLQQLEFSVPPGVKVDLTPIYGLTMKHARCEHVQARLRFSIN
From the text: as §1, §2, §3

[9] = Solubility test (turbidity, JP-I / JP-II medium); format: physicochemical; settings: pH 6.8, aqueous buffer, kinetic from dmso stock, 2% DMSO solution, turbidity after 4 hours, read-out: solubility assessed by 3 stages

T2 sequence (P56817 46-501): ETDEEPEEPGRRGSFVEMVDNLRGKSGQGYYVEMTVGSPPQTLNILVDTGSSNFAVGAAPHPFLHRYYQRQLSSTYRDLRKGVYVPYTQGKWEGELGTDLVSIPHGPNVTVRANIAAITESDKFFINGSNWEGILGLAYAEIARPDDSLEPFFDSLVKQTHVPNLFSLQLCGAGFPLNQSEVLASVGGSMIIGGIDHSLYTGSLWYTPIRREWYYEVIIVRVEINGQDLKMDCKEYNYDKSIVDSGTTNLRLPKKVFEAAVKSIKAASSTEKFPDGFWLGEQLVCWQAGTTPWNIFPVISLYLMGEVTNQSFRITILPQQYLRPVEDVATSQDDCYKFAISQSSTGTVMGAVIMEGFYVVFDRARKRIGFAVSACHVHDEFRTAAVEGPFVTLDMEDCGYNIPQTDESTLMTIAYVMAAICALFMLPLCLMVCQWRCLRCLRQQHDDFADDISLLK
T1 sequence (P08684 whole entry): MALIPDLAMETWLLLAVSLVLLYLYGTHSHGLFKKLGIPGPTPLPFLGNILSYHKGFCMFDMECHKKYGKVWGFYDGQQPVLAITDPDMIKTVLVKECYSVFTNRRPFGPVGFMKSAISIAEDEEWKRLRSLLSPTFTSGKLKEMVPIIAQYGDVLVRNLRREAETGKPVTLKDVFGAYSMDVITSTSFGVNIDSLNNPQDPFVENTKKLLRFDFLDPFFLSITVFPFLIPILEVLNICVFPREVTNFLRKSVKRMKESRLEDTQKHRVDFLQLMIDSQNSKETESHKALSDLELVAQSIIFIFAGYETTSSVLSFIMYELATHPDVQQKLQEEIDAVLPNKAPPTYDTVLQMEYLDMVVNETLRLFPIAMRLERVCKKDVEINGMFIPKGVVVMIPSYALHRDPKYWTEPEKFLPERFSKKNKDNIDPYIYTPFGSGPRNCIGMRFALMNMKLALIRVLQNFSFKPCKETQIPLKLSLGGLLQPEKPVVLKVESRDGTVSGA
T5 sequence (P08684 whole entry): as above
T6 sequence (P10635 whole entry): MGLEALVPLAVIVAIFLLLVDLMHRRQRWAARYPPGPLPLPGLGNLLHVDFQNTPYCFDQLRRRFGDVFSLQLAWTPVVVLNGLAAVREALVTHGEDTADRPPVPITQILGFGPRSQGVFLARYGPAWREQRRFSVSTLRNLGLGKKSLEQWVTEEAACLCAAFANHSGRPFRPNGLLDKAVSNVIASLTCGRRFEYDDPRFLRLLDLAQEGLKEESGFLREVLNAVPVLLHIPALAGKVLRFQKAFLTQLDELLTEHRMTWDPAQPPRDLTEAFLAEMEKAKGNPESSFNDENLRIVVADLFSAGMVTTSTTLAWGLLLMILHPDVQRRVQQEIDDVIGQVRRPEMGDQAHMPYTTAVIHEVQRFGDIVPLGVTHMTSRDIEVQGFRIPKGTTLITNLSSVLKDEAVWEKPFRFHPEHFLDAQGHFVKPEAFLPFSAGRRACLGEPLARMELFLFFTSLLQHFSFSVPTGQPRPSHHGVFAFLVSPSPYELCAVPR
T3 sequence (P11712 whole entry): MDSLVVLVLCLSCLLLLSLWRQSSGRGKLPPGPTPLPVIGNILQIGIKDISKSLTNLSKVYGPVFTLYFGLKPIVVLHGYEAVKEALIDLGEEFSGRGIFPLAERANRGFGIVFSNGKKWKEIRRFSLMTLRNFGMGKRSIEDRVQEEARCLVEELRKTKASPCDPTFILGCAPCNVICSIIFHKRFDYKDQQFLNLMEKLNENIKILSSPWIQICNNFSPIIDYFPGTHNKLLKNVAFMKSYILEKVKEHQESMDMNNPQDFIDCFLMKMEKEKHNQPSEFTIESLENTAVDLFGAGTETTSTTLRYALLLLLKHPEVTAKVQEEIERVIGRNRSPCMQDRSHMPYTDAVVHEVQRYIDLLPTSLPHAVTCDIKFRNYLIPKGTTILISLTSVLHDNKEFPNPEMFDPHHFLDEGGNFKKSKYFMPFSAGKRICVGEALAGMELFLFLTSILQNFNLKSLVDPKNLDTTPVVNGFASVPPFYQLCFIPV
T4 sequence (P33261 whole entry): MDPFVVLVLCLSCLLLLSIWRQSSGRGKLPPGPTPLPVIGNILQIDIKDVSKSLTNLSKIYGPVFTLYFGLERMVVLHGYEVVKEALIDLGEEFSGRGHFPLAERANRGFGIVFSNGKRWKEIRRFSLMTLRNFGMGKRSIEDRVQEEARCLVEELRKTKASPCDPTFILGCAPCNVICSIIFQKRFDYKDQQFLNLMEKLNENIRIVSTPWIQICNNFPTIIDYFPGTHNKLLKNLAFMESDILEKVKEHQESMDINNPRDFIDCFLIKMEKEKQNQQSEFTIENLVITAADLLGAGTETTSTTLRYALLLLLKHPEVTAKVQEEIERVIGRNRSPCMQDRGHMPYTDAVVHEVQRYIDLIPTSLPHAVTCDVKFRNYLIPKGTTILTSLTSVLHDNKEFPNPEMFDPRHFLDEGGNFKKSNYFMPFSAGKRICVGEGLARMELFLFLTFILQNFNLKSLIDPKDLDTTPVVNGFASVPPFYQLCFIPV

- CYP3A4 MBI: difference of IC50 without and with preincubation [1]: (−) (the difference is 3 μM or less)
SMILES: CC1=C[C@@](C)(c2cc(NC(=O)c3cnc(OCF)cn3)ccc2F)N=C(N)O1 [Compound I-1]

- IC50 [2]: 0.0053 µM
SMILES: C[C@@]1(c2cc(NC(=O)c3ccc(C#N)cn3)ccc2F)C=C(C(F)F)OC(N)=N1 [Compound I-2]

- IC50 [2]: 0.0106 µM
SMILES: C[C@@]1(c2cc(NC(=O)c3ccc(C#N)cn3)ccc2F)C=C(CO)OC(N)=N1 [Compound I-4]

- remaining amount of the compound after the reaction [3]: 99%
- IC50 [2]: 0.0103 µM
SMILES: C[C@@]1(c2cc(NC(=O)c3cnc(OC(F)F)cn3)ccc2F)C=COC(N)=N1 [Compound I-8]

- IC50 [2]: 0.064 µM
SMILES: CC1=C[C@@](C)(c2cc(NC(=O)c3ccc(C#N)cn3)ccc2Cl)N=C(N)O1 [Compound I-11]

- IC50 [4]: > 20 µM
- IC50 [5]: > 20 µM
- IC50 [6]: > 20 µM
- IC50 [7]: > 20 µM
- IC50 [8]: > 20 µM
SMILES: C[C@@]1(c2cc(NC(=O)c3ncc(C#N)cc3F)ccc2F)C=COC(N)=N1 [Compound I-9]

- solubility at 4 h [9]: > 40 µM
SMILES: CC1=C[C@@](C)(c2cc(NC(=O)c3ccc(C(F)F)cn3)ccc2F)N=C(N)O1 [Compound I-5]
